Reference: patent publication US10213415B2, “Compounds as opioid receptor modulators” (JANSSEN PHARMACEUTICA NV, priority 2004, dated 2019)

Assays:
mu opioid receptor = target: T1, mu opioid receptor (Rattus norvegicus, UniProt P33535); test: Rat Brain Mu Opioid Receptor Binding Assay (and Version 2a, [3H]DAMGO); settings: rat forebrain membranes, margin of error 10-20%, read-out: r Ki μ
T1 construct: from tissue; host or cells: forebrain of male Wistar rats
In short: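 Displacement of the mu-selective radioligand [3H]DAMGO (0.8 nM) measured by filtration and scintillation counting after 2.5 h at 25° C. Membranes came from male Wistar rat forebrain in Tris-HCl (50 mM, pH 7.4) plus 5 mM MgCl2; Ki derived from concentration–response, % inhibition for single doses.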

[1] = target: T2, delta opioid receptor (NG108-15 cell membranes) (Mus musculus, UniProt P32300); test: Delta Opioid Receptor Functional Assay: [35S]GTPγS Binding in NG108-15 Cell Membranes, Version 2; assay type: biochemical; settings: NG108-15 cell membranes, version 2; for EC50: [35S]GTPγS, read-out: DOR GTP-binding Assay_v2_ EC50; for DOR GTP-binding Assay v2 (% I): % inhibition of agonist-stimulated GTPγS binding
T2 construct: NG108-15 cell membranes were purchased from Applied Cell Sciences (Rockville, Md.); host or cells: NG108-15 cells (membranes purchased)
T2 sequence (P32300 whole entry): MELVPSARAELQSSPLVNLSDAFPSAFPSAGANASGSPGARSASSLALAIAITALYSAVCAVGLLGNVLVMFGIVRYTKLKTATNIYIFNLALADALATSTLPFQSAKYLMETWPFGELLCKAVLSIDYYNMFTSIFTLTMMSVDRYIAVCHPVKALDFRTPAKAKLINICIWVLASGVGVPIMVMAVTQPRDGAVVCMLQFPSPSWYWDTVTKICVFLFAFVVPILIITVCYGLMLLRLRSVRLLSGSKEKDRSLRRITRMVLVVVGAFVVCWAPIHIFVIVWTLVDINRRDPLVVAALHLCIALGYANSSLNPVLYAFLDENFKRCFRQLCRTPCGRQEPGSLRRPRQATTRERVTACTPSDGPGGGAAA
Experimental: NG108-15 cell membranes were purchased from Applied Cell Sciences (Rockville, Md.). 8 mg/ml of membrane protein suspended in 10 mM TRIS-HC pH 7.2, 2 mM EDTA, 10% sucrose.
(§1) Membranes were maintained at 4-8° C. A portion (1 ml) of membranes was added into 10 ml cold binding assay buffer. The assay buffer contained 50 mM Tris, pH 7.6, 5 mM MgCl2, 100 mM NaCl, 1 mM DTT and 1 mM EGTA. The membrane suspension was homogenized with a Polytron for 2 times and centrifuged at 3000 rpm for 10 min. The supernent was then centrifuged at 18,000 rpm for 20 min. The pellet was saved in a tube and 10 ml assay buffer was added into the tube. The pellet and buffer were mixed with a Polytron.
(§2) The pellet membranes (75 μg/ml) were preincubated with SPA (10 mg/ml) at 25° C. for 45 min in the assay buffer. The SPA (5 mg/ml) coupled with membranes (37.5 μg/ml) was then incubated with 0.1 nM [^35S] GTPγS in the same Tris buffer containing 100 μM GDP in total volume of 200 μl. Increasing concentrations of receptor agonists were used to stimulate [^35S] GTPγS binding. The basal binding was tested in the absent agonists and no specific binding was tested in the present 10 μM unlabeled GTPγS. The data were analyzed on a Top counter.
[formula] % Inhibition=(% stimulation by 1 μM SNC80−% stimulation by 1 μM SNC80 in presence of test compound)×100/(% Stimulation by 1 μM SNC80−100) % of Basal=(stimulate−non specific)*100/(basal−non specific). EC50 values were calculated using GraphPad Prism.

delta opioid receptor = target: T3, delta opioid receptor (Rattus norvegicus, UniProt P33533); test: Rat Brain Delta Opioid Receptor Binding Assay ([3H]DPDPE); settings: rat forebrain membranes, margin of error 10-20%, read-out: r Ki δ
T3 construct: from tissue; host or cells: forebrain of male Wistar rats
T3 sequence (P33533 whole entry): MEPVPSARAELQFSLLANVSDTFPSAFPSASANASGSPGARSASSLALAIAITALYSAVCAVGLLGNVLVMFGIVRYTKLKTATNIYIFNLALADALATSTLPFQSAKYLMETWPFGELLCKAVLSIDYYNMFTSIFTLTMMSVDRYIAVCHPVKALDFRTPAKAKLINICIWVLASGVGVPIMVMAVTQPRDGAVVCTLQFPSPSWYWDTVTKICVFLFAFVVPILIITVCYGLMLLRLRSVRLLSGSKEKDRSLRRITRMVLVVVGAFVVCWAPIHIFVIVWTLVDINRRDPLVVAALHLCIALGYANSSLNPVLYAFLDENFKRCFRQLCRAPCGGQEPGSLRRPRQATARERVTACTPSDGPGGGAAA
In short: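 Rat (male Wistar) forebrain membranes in 50 mM Tris-HCl pH 7.4 with 5 mM MgCl2, incubated with ~4 nM [3H]DPDPE for 2.5 h at 25 °C. Bound ligand collected by filtration and scintillation counting. Single-concentration data given as % inhibition of specific binding; concentration series fitted to Ki.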

human mu opioid receptor = target: T4, human mu opioid receptor (Homo sapiens, UniProt P35372); test: Human Mu Opioid Receptor Binding Assay (CHO membranes, 3H-Damgo); settings: read-out: hKi μ
T4 construct: purchased Perkin Elmer RBHOMM400UA; host or cells: Chinese Hamster Ovary cells (recombinant expression)
T4 sequence (P35372 whole entry): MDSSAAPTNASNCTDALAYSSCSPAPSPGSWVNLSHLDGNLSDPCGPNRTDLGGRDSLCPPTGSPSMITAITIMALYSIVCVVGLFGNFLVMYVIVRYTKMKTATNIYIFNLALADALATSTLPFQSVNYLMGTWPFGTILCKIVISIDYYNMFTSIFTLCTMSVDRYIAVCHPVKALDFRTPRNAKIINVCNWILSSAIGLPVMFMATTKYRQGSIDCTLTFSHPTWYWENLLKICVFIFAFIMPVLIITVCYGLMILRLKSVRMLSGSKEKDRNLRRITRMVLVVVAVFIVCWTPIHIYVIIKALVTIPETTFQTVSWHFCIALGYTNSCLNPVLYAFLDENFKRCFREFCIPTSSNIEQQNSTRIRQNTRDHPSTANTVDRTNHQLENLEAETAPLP
In short: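 Radioligand displacement of ³H-Damgo (diluted to 3.6 nM pre-mix) from recombinant human mu receptor in CHO membranes, 2 h, room temperature, 50 mM Tris pH 7.5 with 5 mM MgCl2. Bound label read by filtration and scintillation counting; 1 μM unlabelled Damgo defines nonspecific binding.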

[2] = target: T5, mu opioid receptor (CHO-hMOR cell membranes) (Homo sapiens, UniProt P35372); test: Mu Opioid Receptor Functional Assay: [35S]GTPγS Binding in CHO-hMOR Cell Membranes, Versions 1 and 2; assay type: biochemical; settings: for MOR GTP binding assay_v2 (% I): version 2, % inhibition of agonist-stimulated GTPγS binding; for EC50: version 2, read-out: MOR GTP binding assay v2 EC50
T5 construct: purchased Receptor Biology, Inc. (Baltimore, Md.); host or cells: CHO cells (recombinant expression)
T5 sequence (P35372 whole entry): as above
In short: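 Agonist-stimulated [35S]GTPγS (0.5 nM) binding measured by SPA in human MOR CHO membranes, buffer pH 7.6 with 100 mM NaCl, 5 mM MgCl2. Antagonist mode: % inhibition of stimulation by 1 μM SNC80; agonist mode: EC50 fitted. Basal binding without agonist, non-specific with 10 μM cold GTPγS.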

[3] = target: T6, delta opioid receptor (CHO-hδ cell membranes) (Homo sapiens, UniProt P41143); test: Delta Opioid Receptor Functional Assay: [35S]GTPγS Binding in CHO-hδ Cell Membranes, Version 1; assay type: biochemical; settings: read-out: DOR GTP-binding Assay_v1 EC50
T6 construct: purchased Receptor Biology, Inc. (Baltimore, Md.); host or cells: CHO cells (recombinant expression)
T6 sequence (P41143 whole entry): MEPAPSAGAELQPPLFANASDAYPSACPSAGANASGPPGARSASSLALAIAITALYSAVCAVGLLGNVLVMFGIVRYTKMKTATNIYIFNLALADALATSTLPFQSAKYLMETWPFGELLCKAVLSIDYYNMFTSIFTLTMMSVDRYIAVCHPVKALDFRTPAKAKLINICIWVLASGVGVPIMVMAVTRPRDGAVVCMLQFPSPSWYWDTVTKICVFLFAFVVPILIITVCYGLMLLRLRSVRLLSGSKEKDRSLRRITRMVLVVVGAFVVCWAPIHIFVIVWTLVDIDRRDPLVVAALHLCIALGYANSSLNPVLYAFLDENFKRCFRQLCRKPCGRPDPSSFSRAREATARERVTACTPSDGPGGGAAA
Experimental: CHO-hδ cell membranes were purchased from Receptor Biology, Inc. (Baltimore, Md.). 10 mg/ml of membrane protein suspended in 10 mM TRIS-HC pH 7.2, 2 mM EDTA, 10% sucrose.
as §1, with “into 15 mL” for “into 10 ml”, “mM HEPES,” for “mM Tris,”, “mM EDTA.” for “mM EGTA.”
as §2, with “(20” for “(75”, “(10” for “(37.5”, “0.5” for “0.1”, “[^35S]GTPγS” for “[^35S] GTPγS”, “HEPES” for “Tris”, “50” for “100”
Data The % of Basal=(stimulate−non specific)*100/(basal−non specific). EC50 values were calculated using a Prism program.

T1 sequence (P33535 whole entry): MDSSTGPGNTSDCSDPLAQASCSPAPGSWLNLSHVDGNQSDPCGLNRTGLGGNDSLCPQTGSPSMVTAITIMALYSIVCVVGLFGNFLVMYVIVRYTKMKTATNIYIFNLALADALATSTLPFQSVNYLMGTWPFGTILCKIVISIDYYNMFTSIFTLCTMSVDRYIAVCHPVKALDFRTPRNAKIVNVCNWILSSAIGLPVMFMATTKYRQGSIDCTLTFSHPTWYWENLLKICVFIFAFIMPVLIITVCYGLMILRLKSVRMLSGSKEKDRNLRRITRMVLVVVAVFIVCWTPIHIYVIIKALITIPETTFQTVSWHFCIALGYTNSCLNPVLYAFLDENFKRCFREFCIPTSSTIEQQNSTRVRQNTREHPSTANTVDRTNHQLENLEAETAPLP

## COc1ccc(CN(C(=O)[C@@H](N)Cc2c(C)cc(C(N)=O)cc2C)[C@@H](C)c2nc(-c3cccc(Br)c3)c[nH]2)cc1C(=O)O [Cpd 288]
Mu opioid receptor
  Ki: 0.43 nM
[1]
  EC50: > 10000 nM
  DOR GTP-binding Assay v2 (% I): 74.54%
Delta opioid receptor
  Ki: 0.17 nM

## Cc1cc(C(N)=O)cc(C)c1C[C@H](N)C(=O)N(Cc1ccccc1C(N)=O)[C@@H](C)c1nc(-c2ccccc2)c[nH]1 [Cpd 1]
Mu opioid receptor
  Ki: 1.1 nM
[1]
  EC50: 88 nM
  DOR GTP-binding Assay v2 (% I): 22.10%
Delta opioid receptor
  Ki: 13.2 nM
Human mu opioid receptor
  Ki: 3.6 nM

## COc1ccc(CN(C(=O)[C@@H](N)Cc2c(C)cc(C(N)=O)cc2C)[C@@H](C)c2nc(-c3ccccc3)c[nH]2)cc1C(=O)NCCO [Cpd 299]
[2]
  MOR GTP binding assay_v2 (% I): 12.11%
  EC50: 1 nM
Mu opioid receptor
  Ki: 0.44 nM
[1]
  EC50: 2.3 nM
Delta opioid receptor
  Ki: 1.16 nM

## COC(=O)c1ccc(CN(C(=O)[C@@H](N)Cc2c(C)cc(O)cc2C)[C@@H](C)c2nc(-c3ccccc3)c[nH]2)o1 [Cpd 286]
Mu opioid receptor
  Ki: 0.05 nM
[1]
  EC50: 2.6 nM
  DOR GTP-binding Assay v2 (% I): 34.65%
Delta opioid receptor
  Ki: 0.11 nM

## Cc1cc(O)cc(C)c1C[C@H](N)C(=O)N(C)[C@@H](CC(C)C)c1nc(-c2ccccc2)c[nH]1 [Cpd 174]
[2]; version 1, % inhibition of agonist-stimulated GTPγS binding
  MOR GTP binding assay_v1 (% I): 42.00%
[2]; version 1, basal binding = 100%
  MOR GTP assay_v1 % of Basal: 864.00%
[3]
  EC50: 20 nM

## COc1cc(CN(C(=O)[C@@H](N)Cc2c(C)cc(C(N)=O)cc2C)[C@@H](C)c2nc(-c3ccccc3)c[nH]2)ccc1C(=O)O [Cpd 14]
[1]
  EC50: 0.6 nM
  DOR GTP-binding Assay v2 (% I): 59.70%
Delta opioid receptor
  Ki: 0.36 nM
Human mu opioid receptor
  Ki: 4.7 nM

## COc1ccc(CN(C(=O)[C@@H](N)Cc2c(C)cc(C(N)=O)cc2C)[C@@H](C)c2nc(-c3ccccc3Br)c[nH]2)cc1C(=O)O [Cpd 290]
Mu opioid receptor
  Ki: 0.43 nM
[1]
  EC50: > 10000 nM
  DOR GTP-binding Assay v2 (% I): 52.41%
Delta opioid receptor
  Ki: 0.69 nM

## COc1cc(CN(C(=O)[C@@H](N)Cc2c(C)cc(C(N)=O)cc2C)[C@@H](C)c2nc(-c3ccccc3)c[nH]2)c(C(=O)O)cc1OC [Cpd 230]
Mu opioid receptor
  Ki: 5 nM
[1]
  EC50: 48.9 nM
Delta opioid receptor
  Ki: 10 nM

## COc1ccc(CN(C(=O)[C@@H](N)Cc2c(C)cc(C(N)=O)cc2C)[C@@H](C)c2nc(-c3ccccc3)c[nH]2)cc1C(=O)N1CCOCC1 [Cpd 296]
[2]
  MOR GTP binding assay_v2 (% I): 9.35%
  EC50: 2.2 nM
Mu opioid receptor
  Ki: 0.49 nM
[1]
  EC50: 7.9 nM
  DOR GTP-binding Assay v2 (% I): 69.41%
Delta opioid receptor
  Ki: 2.2 nM

## COc1ccc(CN(C(=O)[C@@H](N)Cc2c(C)cc(O)cc2C)[C@@H](C)c2nc(-c3ccccc3)c[nH]2)c2ccccc12 [Cpd 247]
Mu opioid receptor
  Ki: 0.61 nM
[1]
  EC50: 44 nM
  DOR GTP-binding Assay v2 (% I): 41.89%
Delta opioid receptor
  Ki: 0.4 nM

## Cc1cc(O)cc(C)c1C[C@H](N)C(=O)N(Cc1ccc(C(F)(F)F)cc1)[C@@H](C)c1nc(-c2ccccc2)c[nH]1 [Cpd 249]
Mu opioid receptor
  Ki: 0.12 nM
[1]
  EC50: 8 nM
  DOR GTP-binding Assay v2 (% I): 20.14%
Delta opioid receptor
  Ki: 0.18 nM

## COC(=O)c1cccc(CN(C(=O)[C@@H](N)Cc2c(C)cc(C(N)=O)cc2C)[C@@H](C)c2nc(-c3ccccc3)c[nH]2)c1 [Cpd 9]
Mu opioid receptor
  Ki: 0.16 nM
[1]
  EC50: 3.4 nM
  DOR GTP-binding Assay v2 (% I): 67.13%
Delta opioid receptor
  Ki: 0.11 nM
Human mu opioid receptor
  Ki: 10.9 nM

## COc1ccc(CN(C(=O)[C@@H](N)Cc2c(C)cc(C(N)=O)cc2C)[C@@H](C)c2nc(-c3ccc(Cl)cc3)c(C)[nH]2)cc1C(=O)O [Cpd 239]
Mu opioid receptor
  Ki: 0.44 nM
[1]
  EC50: > 10000 nM
Delta opioid receptor
  Ki: 0.1 nM

## COc1ccc(CN(C(=O)[C@@H](N)Cc2c(C)cc(C(N)=O)cc2C)[C@@H](C)c2nc(-c3ccccc3)c[nH]2)cc1C(=O)NC1CC1 [Cpd 300]
[2]
  MOR GTP binding assay_v2 (% I): 15.40%
  EC50: 2.6 nM
Mu opioid receptor
  Ki: 0.09 nM
[1]
  EC50: 32 nM
Delta opioid receptor
  Ki: 0.29 nM

## C[C@@H](c1nc(-c2ccccc2)c[nH]1)N(Cc1cccc(-c2nnn[nH]2)c1)C(=O)[C@@H](N)Cc1ccc(C(N)=O)cc1 [Cpd 267]
Mu opioid receptor
  Ki: 1.53 nM
[1]
  EC50: 6 nM
  DOR GTP-binding Assay v2 (% I): 31.76%
Delta opioid receptor
  Ki: 0.46 nM
Human mu opioid receptor
  Ki: 6.88 nM

## COc1ccc(CN(C(=O)[C@@H](N)Cc2c(C)cc(C(N)=O)cc2C)[C@@H](C)c2nc(-c3ccc(Br)cc3)c[nH]2)cc1C(=O)O [Cpd 291]
Mu opioid receptor
  Ki: 0.47 nM
[1]
  EC50: > 10000 nM
  DOR GTP-binding Assay v2 (% I): 96.52%
Delta opioid receptor
  Ki: 0.12 nM

## COc1ccc(CN(C(=O)[C@@H](N)Cc2c(C)cc(C(N)=O)cc2C)[C@@H](C)c2nc(-c3ccccc3C(=O)O)c[nH]2)cc1OC [Cpd 29]
Mu opioid receptor
  Ki: 25 nM
[1]
  EC50: > 10000 nM
  DOR GTP-binding Assay v2 (% I): 79.05%
Delta opioid receptor
  Ki: 28 nM
Human mu opioid receptor
  Ki: 38 nM

## Cc1cc(O)cc(C)c1C[C@H](N)C(=O)N(Cc1ccc(OC(F)(F)F)cc1)[C@@H](C)c1nc(-c2ccccc2)c[nH]1 [Cpd 248]
Mu opioid receptor
  Ki: 0.11 nM
[1]
  EC50: 15 nM
  DOR GTP-binding Assay v2 (% I): 31.72%
Delta opioid receptor
  Ki: 0.44 nM

## Cc1cc(O)cc(C)c1C[C@H](N)C(=O)N(Cc1ccc(OC(C)C)cc1)[C@@H](C)c1nc(-c2ccccc2)c[nH]1 [Cpd 250]
Mu opioid receptor
  Ki: 0.06 nM
[1]
  EC50: 10 nM
  DOR GTP-binding Assay v2 (% I): 34.93%
Delta opioid receptor
  Ki: 0.21 nM

## Cc1cc(C(N)=O)cc(C)c1C[C@H](N)C(=O)N(Cc1ccccc1C(=O)O)[C@@H](C)c1nc(-c2ccccc2)c[nH]1 [Cpd 226]
[1]
  EC50: > 10000 nM
  DOR GTP-binding Assay v2 (% I): 19.71%
Delta opioid receptor
  Ki: 48 nM
Human mu opioid receptor
  Ki: 7.91 nM

## COc1ccc(CN(C(=O)[C@@H](N)Cc2c(C)cc(C(N)=O)cc2C)[C@@H](C)c2nc(-c3ccccc3)c[nH]2)cc1C(N)=O [Cpd 295]
[2]
  MOR GTP binding assay_v2 (% I): 8.21%
  EC50: 1.4 nM
Mu opioid receptor
  Ki: 0.18 nM
[1]
  EC50: 2.2 nM
  DOR GTP-binding Assay v2 (% I): 71.66%
Delta opioid receptor
  Ki: 3.95 nM

## CCOc1cccc(CN(C(=O)[C@@H](N)Cc2c(C)cc(O)cc2C)[C@@H](C)c2nc(-c3ccccc3)c[nH]2)c1 [Cpd 251]
Mu opioid receptor
  Ki: 0.08 nM
[1]
  EC50: 18 nM
  DOR GTP-binding Assay v2 (% I): 53.94%
Delta opioid receptor
  Ki: 0.26 nM
